{"source": "ChEMBL document CHEMBL1158463", "about": "(J Med Chem, 2009)", "tested_on": "Canis familiaris", "assay": "Toxicity in dog assessed as change in cardiovascular variables up to 5 mg/kg by telemetry study", "assay_type": "organism-based, Canis lupus familiaris, Heart", "parameters": "dose 5 mg/kg", "details": "in vivo", "data": [{"smiles": "COC(=O)C1Cc2ccccc2N1C(=O)CCN1CCC2(CCc3ccccc32)CC1", "note": "(stereo not drawn)", "values": [{"measurement": "Activity", "result": "Non-toxic"}]}, {"smiles": "Cc1ccc2nc(NC(=O)c3ccc(Cl)cc3)nc(N[C@H]3CCCC[C@H]3NC(=N)N)c2c1", "values": [{"measurement": "Activity", "result": "Non-toxic"}]}, {"smiles": "Cc1cccc2c1CC[C@H](CN1CCC(c3c(Cl)cccc3Cl)CC1)C[C@@H]2O", "values": [{"measurement": "Activity", "result": "Non-toxic"}]}, {"smiles": "CCN1CCN(c2cc3[nH]c(C(=O)[C@]4(C)CC[C@](C)(O)CC4)nc3cc2C)CC1", "values": [{"measurement": "Activity", "result": "Non-toxic"}]}, {"smiles": "CCc1ccc(OCc2ccccc2C(=O)Nc2ccc3nc(C)cc(N)c3c2)cc1", "values": [{"measurement": "Activity", "result": "Non-toxic"}]}, {"smiles": "CN1CC(C(=O)NCCCN2CCC3(CCc4ccccc43)CC2)CC1=O", "note": "(stereo not drawn)", "values": [{"measurement": "Activity", "result": "Non-toxic"}]}, {"smiles": "O[C@H]1C[C@H](CN2CC[C@H](c3ccc(F)cc3Cl)[C@@H](O)C2)Cc2cccnc21", "values": [{"measurement": "Activity", "result": "Non-toxic"}]}, {"smiles": "O=C(NCCCN1CCC2(CC1)OCc1ccccc12)[C@H]1CCCN1Cc1ccccc1", "values": [{"measurement": "Activity", "result": "Non-toxic"}]}]}
